Experimental data reported in patent US11717639B2, “Combinatorial therapeutic systems and methods” (Cognifisense, Inc., priority 2018, dated 2023).
Entries after “also recorded” stand apart in the source; their conditions may differ.

How the values were obtained:
[1] = test system: pain associated with fibromyalgia; experiment: Combinatorial therapy of milnacipran and VRNT or virtual reality distraction therapy for fibromyalgia; assay type: in vivo, patient
Source text: In an exemplary embodiment, a combinatorial therapeutic system for treating fibromyalgia includes a serotonin-norepinephrine reuptake inhibitor (SNRI) and an artificial sensory experience. The SNRI can include milnacipran, specifically, and in some embodiments, the SNRI can include other SNRIs commonly prescribed to treat fibromyalgia (e.g., duloxetine). Similar to those combinatorial systems described above, the artificial sensory experience combined with the SNRI (preferably milnacipran) can include any of 2D/3D/4D artificial sensory experiences, holography, augmented reality, virtual reality, and/or mixed reality. In an exemplary embodiment, the artificial sensory experience is VRNT or virtual reality distraction therapy.
In some embodiments, the combinatorial treatment systems and methods for treating/mitigating pain associated with fibromyalgia can have similar results to those illustrated and described with respect to FIGS. 5A, 5B, 5C, 6A, and 6B.

H1 receptors = H1 receptors (Homo sapiens, UniProt P35367); details: cited from earlier work
Chain of H1 receptors (P35367 whole entry): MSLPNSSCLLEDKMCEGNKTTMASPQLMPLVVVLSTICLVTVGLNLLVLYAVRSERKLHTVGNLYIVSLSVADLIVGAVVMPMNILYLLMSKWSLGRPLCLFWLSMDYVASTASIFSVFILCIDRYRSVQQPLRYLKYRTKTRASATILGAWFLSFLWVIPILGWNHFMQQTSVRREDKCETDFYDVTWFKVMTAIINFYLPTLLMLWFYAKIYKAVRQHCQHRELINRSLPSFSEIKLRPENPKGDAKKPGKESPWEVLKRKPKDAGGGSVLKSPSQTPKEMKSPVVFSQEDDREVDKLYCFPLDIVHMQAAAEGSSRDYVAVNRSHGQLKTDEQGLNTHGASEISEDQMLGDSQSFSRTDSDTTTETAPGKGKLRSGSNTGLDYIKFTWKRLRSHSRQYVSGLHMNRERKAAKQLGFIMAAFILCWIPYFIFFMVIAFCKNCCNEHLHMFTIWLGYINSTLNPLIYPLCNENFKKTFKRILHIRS

α1 receptors = details: cited from earlier work
D1 receptors = D1 receptors (Homo sapiens, UniProt P21728); details: cited from earlier work
Chain of D1 receptors (P21728 whole entry): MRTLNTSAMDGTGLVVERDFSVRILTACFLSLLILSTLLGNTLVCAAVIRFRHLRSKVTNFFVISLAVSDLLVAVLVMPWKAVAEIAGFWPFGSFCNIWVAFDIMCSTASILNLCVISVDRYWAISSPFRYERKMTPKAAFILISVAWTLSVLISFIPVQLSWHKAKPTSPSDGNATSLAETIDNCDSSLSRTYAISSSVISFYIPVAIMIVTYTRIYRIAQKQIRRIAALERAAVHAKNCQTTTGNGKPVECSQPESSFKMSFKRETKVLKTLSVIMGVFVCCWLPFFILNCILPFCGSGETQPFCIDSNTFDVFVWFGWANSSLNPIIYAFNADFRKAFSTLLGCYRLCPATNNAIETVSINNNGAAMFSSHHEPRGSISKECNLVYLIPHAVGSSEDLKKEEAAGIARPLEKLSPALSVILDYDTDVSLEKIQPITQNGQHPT

D2 receptors = D2 receptors (Homo sapiens, UniProt P14416); details: cited from earlier work
Chain of D2 receptors (P14416 whole entry): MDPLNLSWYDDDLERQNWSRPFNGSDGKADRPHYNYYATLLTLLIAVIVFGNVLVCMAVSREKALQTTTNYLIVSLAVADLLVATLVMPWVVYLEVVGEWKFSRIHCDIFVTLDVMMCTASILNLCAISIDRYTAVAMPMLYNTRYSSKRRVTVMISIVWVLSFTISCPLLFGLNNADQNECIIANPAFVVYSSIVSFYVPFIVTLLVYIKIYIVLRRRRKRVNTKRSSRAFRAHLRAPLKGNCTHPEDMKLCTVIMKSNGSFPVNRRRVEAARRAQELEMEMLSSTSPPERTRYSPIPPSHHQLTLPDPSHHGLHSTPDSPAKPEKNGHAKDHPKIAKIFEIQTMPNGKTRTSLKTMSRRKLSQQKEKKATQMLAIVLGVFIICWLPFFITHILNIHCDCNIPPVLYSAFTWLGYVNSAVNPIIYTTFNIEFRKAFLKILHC

mACh receptors = details: cited from earlier work
[2] = test system: benzodiazepine binding sites; details: cited from earlier work
opioid binding sites = details: cited from earlier work
pain [3] = experiment: Combinatorial therapy of opioid analgesic and VRNT: patient's amount of pain over time (FIGS. 5A-5C); assay type: in vivo; details: opioid analgesic in combination with VRNT, potential patient responses
Source text: FIGS. 5A-5C illustrate exemplary graphs of potential effects of combinatorial therapeutic systems/methods employing tapentadol and VRNT on a patient's amount of pain over time; and
The synergistic effects of the disclosed combinatorial therapeutic systems/methods can be exemplified in a plurality of responses. For example, FIGS. 5A-5C illustrate a combinatorial therapy using tapentadol (as the opioid analgesic) and VRNT (as the artificial sensory experience) with different potential patient responses. As many, if not all, patients may experience the synergistic benefits afforded by the disclosed combinatorial therapeutic systems/methods as an average benefit, the individual-specific responses may be different.

[4] = relative to tramadol and morphine; cited from earlier work
pain [5] = details: reported; cited from earlier work

SMILES | pain over time [1] | actions on H1 receptors (H1 receptors) | actions on α1 receptors (α1 receptors) | actions on D1 receptors (D1 receptors) | actions on D2 receptors (D2 receptors) | actions on mACh receptors (mACh receptors) | actions on benzodiazepine binding sites [2] | actions on opioid binding sites (opioid binding sites) | patient's amount of pain over time (pain [3]) | potency [4] | pain reduction / efficacy versus placebo (pain [5])
CCN(CC)C(=O)C1(c2ccccc2)CC1CN (centres unmarked) [milnacipran] | decrease in pain over time | no significant actions | no significant actions | no significant actions | no significant actions | no significant actions | no significant actions | no significant actions | – | – | –
CC[C@@H](c1cccc(O)c1)[C@@H](C)CN(C)C [tapentadol] | – | – | – | – | – | – | – | – | constant or linear decrease in pain over time; also recorded: cyclical decrease and increase in pain levels over time with an overall decreasing pain level; also recorded: step-wise reduction in pain levels | somewhere between tramadol, another synthetic opioid, and morphine | limited efficacy beyond placebo; also recorded: only marginal incremental pain reduction versus placebo
